# Data from US20100267743A1, “3-(PHENOXYPYRROLIDIN-3-YL-METHYL)HETEROARYL, 3-(PHENYLPYRROLIDIN-3-YLMETHOXY)HETEROARYL, AND 3-(HETEROARYLPYRROLIDIN-3-YLMETHOXY)HETEROARYL COMPOUNDS” (priority 2009, published 2010).
# What was measured:
# [1] = target: SERT (Homo sapiens, UniProt P31645); assay: hSERT radioligand binding assay (3H-citalopram); design: expressed in transfected cells; host or cells: HEK-293; details: hSERT membranes (HEK-293), 1.0 nM 3H-citalopram; for Ki: read-out: SERT pKi (converted)
# Description: (§1) Membrane radioligand binding assays were used to measure inhibition of labeled ligand (^3H-citalopram or ^3H-nisoxetine or ^3H-WIN35428) binding to membranes prepared from cells expressing the respective human recombinant transporter (hSERT or hNET or hDAT) in order to determine the pKi values of test compounds at the transporters.
# (§2) Recombinant human embryonic kidney (HEK-293) derived cell lines stably transfected with hSERT or hNET, respectively, were grown in DMEM medium supplemented with 10% dialyzed FBS (for hSERT) or FBS (for hNET), 100 μg/ml penicillin, 100 μg/ml streptomycin, 2 mM L-glutamine and 250 μg/ml of the aminoglycoside antibiotic G418, in a 5% CO2 humidified incubator at 37° C. When cultures reached 80% confluence, the cells were washed thoroughly in PBS (without […] and Mg^2+) and lifted with 5 mM EDTA in PBS. Cells were pelleted by centrifugation, resuspended in lysis buffer (10 mM Tris-HCl, pH7.5 containing 1 mM EDTA), homogenized, pelleted by centrifugation, then resuspended in 50 mM Tris-HCl, pH 7.5 and 10% sucrose at 4° C. Protein concentration of the membrane suspension was determined using a Bio-Rad Bradford Protein Assay kit. Membranes were snap frozen and stored at −80° C. Chinese hamster ovary membranes expressing hDAT (CHO-DAT) were purchased from PerkinElmer and stored at −80° C.
# (§3) Binding assays were performed in a 96-well assay plate in a total volume of 200 μl assay buffer (50 mM Tris-HCl, 120 mM NaCl, 5 mM KCl, pH 7.4) with 0.5, 1, and 3 μg membrane protein, for SERT, NET and DAT, respectively.
# (§4) Stock solutions (10 mM in DMSO) of test compound were prepared and serial dilutions made using Dilution Buffer (50 mM Tris-HCl, 120 mM NaCl, 5 mM KCl, pH 7.4, 0.1% BSA, 400 μM ascorbic acid).
# (§5) Following a 60 minute incubation at 22° C. (or a period sufficient to reach equilibrium), the membranes were harvested by rapid filtration over a 96-well UniFilter GF/B plate, pretreated with 0.3% polyethyleneimine, and washed 6 times with 300 μl wash buffer (50 mM Tris-HCl, 0.9% NaCl, pH 7.5 at 4° C.). Plates were dried overnight at room temperature, ˜45 μl of MicroScint™-20 (Perkin Elmer) added and bound radioactivity quantitated via liquid scintillation spectroscopy. Inhibition curves and saturation isotherms were analyzed using GraphPad Prism Software package (GraphPad Software, Inc., San Diego, Calif.). IC50 values were generated from concentration response curves using the Sigmoidal Dose Response (variable slope) algorithm in Prism GraphPad. Kd and Bmax values for the radioligand were generated from saturation isotherms using the Saturation Binding Global Fit algorithm in Prism GraphPad. pKi (negative decadic logarithm of Ki) values for test compounds were calculated from the best-fit IC50 values, and the Kd value of the radioligand, using the Cheng-Prusoff equation (Cheng & Prusoff (1973) Biochem. Pharmacol. 22(23):3099-3108): Ki=IC50/(1+[L]/Kd), where [L]=concentration radioligand.
# [2] = target: NET (Homo sapiens, UniProt P23975); assay: hNET radioligand binding assay (3H-nisoxetine); design: expressed in transfected cells; host or cells: HEK-293; details: hNET membranes (HEK-293), 1.0 nM 3H-nisoxetine; for Ki: read-out: NET pKi (converted)
# Description: as §1, §2, §3, §4, §5
# SERT, sequence (P31645 whole entry): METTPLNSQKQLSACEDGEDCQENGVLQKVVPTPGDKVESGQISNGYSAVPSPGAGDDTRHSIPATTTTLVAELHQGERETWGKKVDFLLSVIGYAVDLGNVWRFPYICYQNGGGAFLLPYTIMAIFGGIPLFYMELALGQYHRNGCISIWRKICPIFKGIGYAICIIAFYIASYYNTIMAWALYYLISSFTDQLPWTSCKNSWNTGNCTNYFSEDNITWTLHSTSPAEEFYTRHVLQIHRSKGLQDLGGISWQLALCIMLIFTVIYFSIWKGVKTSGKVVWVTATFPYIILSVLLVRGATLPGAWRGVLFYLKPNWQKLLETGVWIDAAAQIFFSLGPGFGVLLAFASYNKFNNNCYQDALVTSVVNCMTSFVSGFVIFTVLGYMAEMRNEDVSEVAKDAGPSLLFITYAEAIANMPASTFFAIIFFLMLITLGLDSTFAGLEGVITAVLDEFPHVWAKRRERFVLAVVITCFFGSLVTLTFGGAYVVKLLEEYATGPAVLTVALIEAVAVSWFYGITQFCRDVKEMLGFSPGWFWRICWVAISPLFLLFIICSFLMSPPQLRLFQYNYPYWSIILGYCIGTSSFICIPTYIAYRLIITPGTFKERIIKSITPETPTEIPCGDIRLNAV
# NET, sequence (P23975 whole entry): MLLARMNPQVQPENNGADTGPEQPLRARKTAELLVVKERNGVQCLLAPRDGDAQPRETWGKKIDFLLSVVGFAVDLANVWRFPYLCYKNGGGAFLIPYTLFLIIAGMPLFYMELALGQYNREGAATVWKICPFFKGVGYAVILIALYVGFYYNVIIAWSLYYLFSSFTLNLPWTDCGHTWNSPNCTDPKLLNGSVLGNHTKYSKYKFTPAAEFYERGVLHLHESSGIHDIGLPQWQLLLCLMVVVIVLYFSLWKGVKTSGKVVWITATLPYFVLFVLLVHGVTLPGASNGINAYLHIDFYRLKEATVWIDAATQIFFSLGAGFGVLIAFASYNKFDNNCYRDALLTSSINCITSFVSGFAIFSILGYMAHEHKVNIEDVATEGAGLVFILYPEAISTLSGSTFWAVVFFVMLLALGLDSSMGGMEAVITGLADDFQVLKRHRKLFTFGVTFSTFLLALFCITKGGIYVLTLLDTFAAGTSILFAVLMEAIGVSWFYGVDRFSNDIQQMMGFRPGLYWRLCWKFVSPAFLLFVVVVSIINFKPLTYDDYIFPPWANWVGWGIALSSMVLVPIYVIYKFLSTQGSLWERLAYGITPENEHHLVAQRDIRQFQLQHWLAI
SMILES,Ki [1],Ki [2],SERT pKi [1],NET pKi [2]
"Fc1cc(Cl)cc(F)c1OC(c1cncc(Cl)c1)C1CCNC1 [Example 2-25, 3-Chloro-5-[(R)-(4-chloro-2,6-difluorophenoxy)-(S)-pyrrolidin-3-yl-methy1]-pyridine]",≤ 100 nM,≤ 100 nM,–,–
FC(F)(F)COc1ncccc1O[C@@H](c1ccccc1)[C@H]1CCNC1.O=C(O)C(F)(F)F [15-11],–,–,≧7.0,≧7.0
CCOc1ncccc1O[C@@H](c1ccccc1)[C@H]1CCNC1.O=C(O)C(F)(F)F [15-20],–,–,≧7.0,≧7.0
"Fc1ccc(F)c(OC(c2nccs2)C2CCNC2)c1Cl [Example 5-16, 2-[((S)-(2-Chloro-3,6-difluorophenoxy)-((S)-pyrrolidin-3-yl-methyl]thiazole]",≤ 100 nM,≤ 100 nM,–,–
"COc1ccccc1OC(c1cccnc1)[C@H]1CCNC1 (stereo partly drawn) [Example 2-81, 3-[(S)-(2-Methoxyphenoxy)-pyrrolidin-3-yl-methyl]pyridine]",≤ 10000 nM,≤ 100 nM,–,–
Cc1cc(Cl)cnc1O[C@@H](c1ccccc1)[C@H]1CCNC1 [Example 13],≤ 100 nM,≤ 100 nM,–,–
Cc1cccc(O[C@@H](c2ccccc2)[C@H]2CCNC2)n1.O=C(O)C(F)(F)F [14-11],–,–,≧5.0,≧5.0
c1ccc(C(Oc2cccnc2)C2CCNC2)cc1 (stereo not shown) [15-32],≤ 100 nM,≤ 10000 nM,–,–
Fc1cnc(O[C@H](c2ccccc2)[C@@H]2CCNC2)c(F)c1.O=C(O)C(F)(F)F [14-16],–,–,≧7.0,≧7.0
O=C(O)C(F)(F)F.c1ccc2cc(O[C@@H](c3ncco3)[C@H]3CCNC3)ccc2c1 [20-1],–,–,≧7.0,≧7.0
Clc1ncccc1O[C@@H](c1ccccc1)C1CCNC1 (stereo partly shown) [15-4],≤ 100 nM,≤ 100 nM,–,–
Fc1ccc(O[C@@H](c2ccccc2)C2CCNC2)cn1 (stereo partly shown) [15-25],≤ 100 nM,≤ 10000 nM,–,–
Fc1cc(O[C@@H](c2ccccc2)[C@H]2CCNC2)ccn1.O=C(O)C(F)(F)F [16-6],–,–,≧5.0,≧5.0
Fc1ccc(F)c(O[C@H](c2cnccn2)[C@H]2CCNC2)c1Cl [10-4],≤ 100 nM,≤ 10000 nM,–,–
Cc1ccnc(OC(c2ccccc2)C2CCNC2)c1 (stereo not shown) [14-32],–,–,≧7.0,≧7.0
Cc1ccc(F)c(O[C@H](c2nccs2)C2CCNC2)c1Cl (stereo partly shown) [Example 5-17],–,–,≧7.0,≧7.0
"Cc1cc(Cl)cc(C)c1O[C@H](c1cncc(Cl)c1)[C@@H]1CCNC1 [Example 2-29, 3-Chloro-5-[(R)-(4-chloro-2,6-dimethylphenoxy)-(S)-pyrrolidin-3-yl-methy1]-pyridine]",–,–,≧7.0,≧5.0
Fc1cc(F)c(Cl)c(O[C@@H](c2nccs2)[C@H]2CCNC2)c1Cl [Example 5-8],–,–,≧5.0,≧5.0
FC(F)(F)c1cnc(O[C@@H](c2ccccc2)[C@H]2CCNC2)c(Cl)c1.O=C(O)C(F)(F)F [14-25],–,–,≧7.0,≧5.0
CC(=O)c1cc(F)cc(F)c1O[C@@H](c1ncco1)[C@H]1CCNC1.O=C(O)C(F)(F)F [6-28],–,–,≧5.0,≧7.0
Cc1nc(O[C@@H](c2ccccc2)[C@H]2CCNC2)c(Br)cc1Br.O=C(O)C(F)(F)F [14-12],–,–,≧7.0,≧7.0
FC(F)(F)Oc1cccc(C(Oc2cccc3ccccc23)C2CCNC2)c1 (stereo not shown) [21-7],≤ 100 nM,≤ 10000 nM,–,–

SMILES,Ki [1],Ki [2],SERT pKi [1],NET pKi [2]
"COc1ccccc1O[C@H](c1cncc(F)c1)[C@H]1CCNC1 [Example 2-63, 3-Fluoro-5-[(S)-(2-methoxyphenoxy)-(S)-pyrrolidin-3-yl-methyl]pyridine]",≤ 10000 nM,≤ 10000 nM,–,–
COc1ccccc1OC(c1cncnc1)C1CCNC1 (stereo not shown) [12-4],–,–,≧5.0,≧7.0
Clc1cccc(Cl)c1O[C@@H](c1ncco1)[C@H]1CCNC1.O=C(O)C(F)(F)F [6-8],–,–,≧7.0,≧7.0
"Fc1cncc(C(Oc2ccc(Cl)cc2Cc2ccccc2)C2CCNC2)c1 [Example 2-47, 3-[(R)-(2-Benzy1-4-chlorophenoxy)-(S)-pyrrolidin-3-yl-methy1]-5-fluoropyridine]",≤ 100 nM,≤ 100 nM,–,–
Fc1cccc(O[C@@H](c2ccccc2)[C@H]2CCNC2)n1.O=C(O)C(F)(F)F [14-10],–,–,≧5.0,≧7.0
FC(F)(F)c1ccc(O[C@H](c2ccccc2)[C@@H]2CCNC2)nc1.O=C(O)C(F)(F)F [14-24],–,–,≧7.0,≧5.0
Fc1c(Cl)nc(O[C@@H](c2ccccc2)[C@H]2CCNC2)c(F)c1Cl.O=C(O)C(F)(F)F [14-6],–,–,≧7.0,≧7.0
Fc1ccc(O[C@@H](c2ccccc2)[C@H]2CCNC2)cn1.O=C(O)C(F)(F)F [15-27],–,–,≧7.0,≧5.0
Fc1cc(F)c(O[C@@H](c2ccccc2)[C@H]2CCNC2)nc1F.O=C(O)C(F)(F)F [14-1],–,–,≧7.0,≧5.0
Fc1ccc(F)c(O[C@H](c2ncco2)[C@H]2CCNC2)c1Cl [6-21],≤ 10000 nM,≤ 10000 nM,–,–
"Fc1cc(Cl)cc(Cl)c1OC(c1cncc(Cl)c1)C1CCNC1 [Example 2-27, 3-Chloro-5-[(R)-(2,4-dichloro-6-fluorophenoxy)-(S)-pyrrolidin-3-yl-methy1]-pyridine]",≤ 100 nM,≤ 100 nM,–,–
COc1ccccc1O[C@H](c1cnccn1)[C@H]1CCNC1 [10-8],≤ 10000 nM,≤ 10000 nM,–,–
"Cc1cc(Cl)ccc1O[C@@H](c1ccco1)[C@H]1CCNC1 [Example 8-2, (S)-3-[(R)-(4-Chloro-2-methylphenoxy)furan-2-yl-methyl]pyrrolidine]",≤ 10000 nM,≤ 10000 nM,–,–
"Cc1cc(Cl)ccc1O[C@H](c1cncc(F)c1)[C@H]1CCNC1 [Example 2-61, 3-[(S)-(4-Chloro-2-methylphenoxy)-(S)-pyrrolidin-3-yl-methyl]-5-fluoropyridine]",≤ 100 nM,≤ 10000 nM,–,–
FC(F)(F)c1cccnc1O[C@@H](c1ccccc1)[C@H]1CCNC1.O=C(O)C(F)(F)F [14-34],–,–,≧7.0,≧5.0
COc1ccc2ccccc2c1OC(c1ccccc1)C1CCNC1 (stereo not shown) [21-8],≤ 100 nM,≤ 100 nM,–,–
Cc1cc(Cl)cnc1O[C@@H](c1cncc(F)c1)[C@H]1CCNC1 [Example 17],≤ 100 nM,≤ 100 nM,–,–
Fc1cc(Cl)ccc1O[C@@H](c1ncco1)[C@H]1CCNC1.O=C(O)C(F)(F)F [6-31],–,–,≧7.0,≧7.0
Cc1cnc(O[C@@H](c2ccccc2)[C@H]2CCNC2)c(Br)c1.O=C(O)C(F)(F)F [14-31],–,–,≧7.0,≧7.0
Cc1ncccc1O[C@@H](c1ccccc1)[C@H]1CCNC1.O=C(O)C(F)(F)F [15-9],–,–,≧5.0,≧5.0
"Fc1cc(F)c(O[C@@H](c2ccncc2)[C@H]2CCNC2)c(F)c1 [Example 3-1, 4-[(R)-(S)-Pyrrolidin-3-yl-(2,4,6-trifluorophenoxy)methyl]pyridine]",≤ 10000 nM,≤ 10000 nM,–,–
"Clc1cc(Cl)cc(OC(c2nccs2)C2CCNC2)c1 [Example 5-26, 2-[(R)-(3,5-Dichlorophenoxy)-((S)-pyrrolidin-3-yl-methyl]thiazole]",≤ 100 nM,≤ 100 nM,–,–
